In patent publication US20160130278A1 (TAISHO PHARMACEUTICAL CO., LTD, priority 2013, published 2016):

The molecules below were run against T1, human type 1 glycine transporter (GlyT1) (Homo sapiens, UniProt P48067) (assay: Glycine uptake inhibition experiment ([3H]glycine uptake)). Details: GlyT1.
T1 construct: T98G cells (glioma cells) expressing human type 1 glycine transporter (GlyT1) were used
T1 sequence (P48067 1-706): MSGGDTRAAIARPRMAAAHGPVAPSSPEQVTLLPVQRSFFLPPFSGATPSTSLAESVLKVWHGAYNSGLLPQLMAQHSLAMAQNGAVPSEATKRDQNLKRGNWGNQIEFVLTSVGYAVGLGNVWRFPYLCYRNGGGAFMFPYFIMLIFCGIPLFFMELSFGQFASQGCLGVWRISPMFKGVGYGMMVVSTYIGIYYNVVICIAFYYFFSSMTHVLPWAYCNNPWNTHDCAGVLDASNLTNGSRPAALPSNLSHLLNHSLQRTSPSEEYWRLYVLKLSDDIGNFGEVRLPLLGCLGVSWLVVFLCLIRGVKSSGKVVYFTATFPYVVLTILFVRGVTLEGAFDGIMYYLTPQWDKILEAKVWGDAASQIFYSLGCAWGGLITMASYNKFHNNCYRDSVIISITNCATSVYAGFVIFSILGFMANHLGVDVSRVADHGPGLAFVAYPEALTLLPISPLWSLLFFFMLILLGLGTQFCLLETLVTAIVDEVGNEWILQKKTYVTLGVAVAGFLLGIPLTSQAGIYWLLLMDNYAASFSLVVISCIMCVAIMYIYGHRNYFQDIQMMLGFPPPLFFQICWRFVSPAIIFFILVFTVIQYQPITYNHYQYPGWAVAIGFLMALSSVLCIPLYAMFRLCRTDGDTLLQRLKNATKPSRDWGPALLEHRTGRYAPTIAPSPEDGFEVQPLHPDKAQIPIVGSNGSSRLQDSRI
Assay type: cell-based
In short: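 T98G glioma cells expressing human GlyT1 were pretreated 10 min with compound in HEPES buffer pH 7.4 (0.2% BSA), then incubated with compound plus 250 nM final [3H]glycine for 15 min at room temperature. Intracellular radioactivity was counted after NaOH lysis; 10 μM ALX5407 defined non-specific uptake. IC50 came from 10^−9–10^−5 M curves.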

SMILES	IC50 [µM]
O=C(NC(c1ccccc1)[C@]1(O)CC[C@@H](F)CC1)c1nccc(C(F)(F)F)c1Cl (single isomer, unassigned) [Compound 238, 3-chloro-N-[(cis-4-fluoro-1-hydroxycyclohexyl)(phenyl)methyl]-4-(trifluoromethyl)pyridine-2-carboxamide]	0.22
O=C(NC(c1ccccc1F)[C@]1(O)CC[C@@H](F)CC1)c1nccc(C(F)(F)F)c1Cl (single isomer, unassigned) [Compound 239, 3-chloro-N-[(cis-4-fluoro-1-hydroxycyclohexyl)(2-fluorophenyl)methyl]-4-(trifluoromethyl)pyridine-2-carboxamide]	0.39
O=C(NC(c1ccccc1F)[C@]1(O)CC[C@H](F)CC1)c1nccc(C(F)(F)F)c1Cl (single isomer, unassigned) [Compound 240, 3-chloro-N-[(trans-4-fluoro-1-hydroxycyclohexyl)(2-fluorophenyl)methyl]-4-(trifluoromethyl)pyridine-2-carboxamide]	0.23
O=C(NC(c1cccc(F)c1Cl)[C@]1(O)CC[C@@H](F)CC1)c1nccc(C(F)F)c1Cl (single isomer, unassigned) [Compound 241, 3-chloro-N-[(2-chloro-3-fluorophenyl)(cis-4-fluoro-1-hydroxycyclohexyl)methyl]-4-(difluoromethyl)pyridine-2-carboxamide]	0.11
O=C(NC(c1cncc(Cl)c1)[C@]1(O)CC[C@@H](F)CC1)c1nccc(C(F)(F)F)c1Cl (single isomer, unassigned) [Compound 242, 3-chloro-N-[(5-chloropyridin-3-yl)(cis-4-fluoro-1-hydroxycyclohexyl)methyl]-4-(trifluoromethyl)pyridine-2-carboxamide]	0.24
O=C(NC(c1cncc(Cl)c1)[C@]1(O)CC[C@@H](F)CC1)c1nccc(C(F)(F)F)c1Cl (single isomer, unassigned) [Compound 243, 3-chloro-N-[(5-chloropyridin-3-yl)(cis-4-fluoro-1-hydroxycyclohexyl)methyl]-4-(trifluoromethyl)pyridine-2-carboxamide]	1.5
O=C(NC(c1ccccn1)[C@]1(O)CC[C@@H](F)CC1)c1nccc(C(F)(F)F)c1Cl (single isomer, unassigned) [Compound 244, 3-chloro-N-[(cis-4-fluoro-1-hydroxycyclohexyl)(pyridin-2-yl)methyl]-4-(trifluoromethyl)pyridine-2-carboxamide]	1
O=C(NC(c1cccc(F)c1Cl)[C@]1(O)CC[C@@H](F)CC1)c1cccc(C(F)(F)F)c1F (single isomer, unassigned) [Compound 245, N-[(2-chloro-3-flurophenyl)(cis-4-fluoro-1-hydroxycyclohexyl)methyl]-2-fluoro-3-(trifluoromethyl)benzamide]	0.99
O=C(NC(c1cccc(F)c1Cl)[C@]1(O)CC[C@@H](F)CC1)c1cccc(C(F)(F)F)c1Cl (single isomer, unassigned) [Compound 246, 2-chloro-N-[(2-chloro-3-fluorophenyl)(cis-4-fluoro-1-hydroxycyclohexyl)methyl]-3-(trifluoromethyl)benzamide]	0.1
O=C(NC(c1cccc(F)c1Cl)[C@]1(O)CC[C@@H](F)CC1)c1ccccc1Cl (single isomer, unassigned) [Compound 247, 2-chloro-N-[(2-chloro-3-fluorophenyl)(cis-4-fluoro-1-hydroxycyclohexyl)methyl]benzamide]	1
O=C(NC(c1cccc(F)c1Cl)[C@]1(O)CC[C@@H](F)CC1)c1cccc(Cl)c1Cl (single isomer, unassigned) [Compound 248, 2,3-dichloro-N-[(2-chloro-3-fluorophenyl)(cis-4-fluoro-1-hydroxycyclohexyl)methyl]benzamide]	0.9
O=C(NC(c1cccc(F)c1Cl)[C@]1(O)CC[C@@H](F)CC1)c1ncccc1Cl (single isomer, unassigned) [Compound 249, 3-chloro-N-[(2-chloro-3-fluorophenyl)(cis-4-fluoro-1-hydroxycyclohexyl)methyl]pyridine-2-carboxamide]	1.2
O=C(NC(c1cccc(F)c1Cl)[C@]1(O)CC[C@@H](F)CC1)c1cnccc1Cl (single isomer, unassigned) [Compound 250, 4-chloro-N-[(2-chloro-3-fluorophenyl)(cis-4-fluoro-1-hydroxycyclohexyl)methyl]pyridine-3-carboxamide]	1.9
O=C(NC(c1cccc(F)c1Cl)[C@]1(O)CC[C@@H](F)CC1)c1cc(Cl)ccc1Cl (single isomer, unassigned) [Compound 251, 2,5-dichloro-N-[(2-chloro-3-fluorophenyl)(cis-4-fluoro-1-hydroxycyclohexyl)methyl]benzamide]	0.43
O=C(NC(c1cccc(F)c1Cl)[C@]1(O)CC[C@@H](F)CC1)c1cc(Cl)cc(Cl)c1 (single isomer, unassigned) [Compound 253, 3,5-dichloro-N-[(2-chloro-3-fluorophenyl)(cis-4-fluoro-1-hydroxycyclohexyl)methyl]benzamide]	8.3
O=C(NC(c1cccc(F)c1Cl)[C@]1(O)CC[C@@H](F)CC1)c1c(Cl)cccc1Cl (single isomer, unassigned) [Compound 254, 2,6-dichloro-N-[(2-chloro-3-fluorophenyl)(cis-4-fluoro-1-hydroxycyclohexyl)methyl]benzamide]	1
O=C(NC(c1cccc(F)c1Cl)[C@]1(O)CC[C@@H](F)CC1)c1nccc2ccccc12 (single isomer, unassigned) [Compound 255, N-[(2-chloro-3-fluorophenyl)(cis-4-fluoro-1-hydroxycyclohexyl)methyl]isoquinoline-1-carboxamidea]	0.12
O=C(NC(c1cccc(F)c1Cl)[C@]1(O)CC[C@@H](F)CC1)c1nccc2ncccc12 (single isomer, unassigned) [Compound 256, N-[(2-chloro-3-fluorophenyl)(cis-4-fluoro-1-hydroxycyclohexyl)methyl]-1,6-naphthyridin-5-carboxamide]	2.1
O=C(NC(c1ccnc(Cl)c1)[C@]1(O)CC[C@@H](F)CC1)c1nccc(C(F)(F)F)c1Cl (single isomer, unassigned) [Compound 257]	0.44
O=C(NC(c1ccnc(Cl)c1)[C@]1(O)CC[C@@H](F)CC1)c1nccc(C(F)(F)F)c1Cl (single isomer, unassigned) [Compound 258]	3
O=C(NC(c1cccc(F)c1Cl)[C@]1(O)CC[C@@H](F)CC1)c1cnnc2ccccc12 (single isomer, unassigned) [Compound 259, N-[(2-chloro-3-fluorophenyl)(cis-4-fluoro-1-hydroxycyclohexyl)methyl]cinnoline-4-carboxamide]	1
Cn1nc2c(c1C(=O)NC(c1cccc(F)c1Cl)[C@]1(O)CC[C@@H](F)CC1)CCCC2 (single isomer, unassigned) [Compound 260, N-[(2-chloro-3-fluorophenyl)(cis-4-fluoro-1-hydroxycyclohexyl)methyl]-2-methyl-4,5,6,7-tetrahydro-2H-indazol-3-carboxamide]	1.7
Cc1nc2ccccn2c1C(=O)NC(c1cccc(F)c1Cl)[C@]1(O)CC[C@@H](F)CC1 (single isomer, unassigned) [Compound 261, N-[(2-chloro-3-fluorophenyl)(cis-4-fluoro-1-hydroxycyclohexyl)methyl]-2-methylimidazo[1,2-a]pyridine-3-carboxamide]	7.4
O=C(NC(c1cccc(F)c1Cl)[C@]1(O)CC[C@@H](F)CC1)c1c(Cl)nc2ccccn12 (single isomer, unassigned) [Compound 262, 2-chloro-N-[(2-chloro-3-fluorophenyl)(cis-4-fluoro-1-hydroxycyclohexyl)methyl]imidazo[1,2-a]pyridine-3-carboxamide]	8.8
Cc1noc2nc(C3CC3)cc(C(=O)NC(c3cccc(F)c3Cl)[C@]3(O)CC[C@@H](F)CC3)c12 (single isomer, unassigned) [Compound 263, N-[(2-chloro-3-fluorophenyl)(cis-4-fluoro-1-hydroxycyclohexyl)methyl]-6-cyclopropyl-3-methyl[1,2]oxazolo[5,4-b]pyridine-4-carboxamide]	0.99
O=C(NC(c1cccc(F)c1Cl)[C@]1(O)CC[C@@H](F)CC1)c1ccc(Cl)cc1Cl (single isomer, unassigned) [Compound 264, 2,4-dichloro-N-[(2-chloro-3-fluorophenyl)(cis-4-fluoro-1-hydroxycyclohexyl)methyl]benzamide]	0.91
O=C(NC(c1cccnc1)[C@]1(O)CC[C@@H](F)CC1)c1nccc(C(F)(F)F)c1Cl (single isomer, unassigned) [Compound 265, 3-chloro-N-[(cis-4-fluoro-1-hydroxycyclohexyl)(pyridin-3-yl)methyl]-4-(trifluoromethyl)pyridine-2-carboxamide]	0.89
